Assay results taken from patent US20120101104A1, “TOPICAL GEL COMPOSITIONS AND METHODS OF USE” (GALDERMA S.A., priority 2010, published 2012).

How the values were obtained:
[1] = Methylparaben concentration in supernatant after centrifugation of a batch with crystals; type: physicochemical
Method: Centrifugation was performed on the batch to collect crystals at the bottom of the centrifuge tube, thus removing them from the supernatant.

[2] = Microscopic observation of gel compositions for methylparaben crystalline particles; type: physicochemical
Method: Microscopic observations were performed on additional representative batches of brimonidine topical gel compositions and placebo gel compositions containing 1.25% (w/w) carbomer, POBM and other ingredients. The observations have been done on one tube of each batch, with the microscope Axiolab DRBKT Zeiss no. 023733.01 with a camera ICC Zeiss or the microscope Olympus BX60. The microscopic observations were done at 5° C. and room temperature.
Numerous formulations with different ingredients and varying concentrations of the ingredients were made and tested for the presence of the paraben crystals by microscopic observations. The microbiological quality of the formulations was also analyzed by using acceptance-test criteria in preservative-efficacy testing (PET) in the United States Pharmacopeia (USP) and the European Pharmacopoeia (EP).

SMILES | supernatant methylparaben as share of the 0.3% (w/w) in the original formulation ([1]; batch originally containing 0.3% (w/w) methylparaben) | methylparaben concentration in the supernatant ([1]; batch originally containing 0.3% (w/w) methylparaben with crystals, after centrifugation) | recrystallization in formulation ([2]; 0.3% (w/w) POBM, addition of 0.1% of EDTA) | crystalline particles in formulation ([2]; methylparaben replaced with Na POBM at 0.3% (w/w))
COC(=O)c1ccc(O)cc1 [methylparaben] | about 66% | about 0.2 % (w/w) | immediate recrystallization | –
COC(=O)c1ccc([O-])cc1.[Na+] [Na POBM] | – | – | – | crystalline particles of Na POBM were still observed
